Test results from US12077503B2, “Substituted cyclic amides and their use as herbicides” (FMC CORPORATION, priority 2015, dated 2024).
Like-named read-outs stand apart in the source and are kept apart here.

Key:
Format in all cases: in vivo
[1] = tested on: barnyardgrass (Echinochloa crus-galli); assay: Test A postemergence; settings: Echinochloa crus-galli, post-emergence, 240 h, Postemergence; for pest or weed control at 125 g/ha: 125 g ai/ha; for pest or weed control at 500 g/ha: 500 g ai/ha, visual injury, 0 to 100 scale (0 no effect, 100 complete control), approx. 10 d
Method in brief: (§1)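 Ratings of 0 (no effect) to 100 (complete control) come from visual comparison with untreated controls roughly 10 d after treatment. Test chemicals, formulated in a non-phytotoxic solvent mixture with surfactant, were applied either as a preemergence directed soil spray on seeded soil or postemergence to one- to two-leaf plants 2 to 10 cm tall.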

[2] = tested on: Galium (catchweed bedstraw, Galium aparine); assay: Test A postemergence; settings: Galium, post-emergence, 240 h, Postemergence; for pest or weed control at 125 g/ha: 125 g ai/ha; for pest or weed control at 500 g/ha: 500 g ai/ha, visual injury, 0 to 100 scale (0 no effect, 100 complete control), approx. 10 d
Method in brief: as §1

[3] = tested on: wheat (Triticum aestivum); assay: Test A postemergence; settings: Triticum aestivum, post-emergence, 240 h, Postemergence; for plant injury at 125 g/ha: 125 g ai/ha; for plant injury at 500 g/ha: 500 g ai/ha, visual injury, 0 to 100 scale (0 no effect, 100 complete control), approx. 10 d
Method in brief: as §1

[4] = tested on: giant foxtail (Setaria faberii); assay: Test A postemergence; settings: Setaria faberi, post-emergence, 240 h, Postemergence; for pest or weed control at 125 g/ha: 125 g ai/ha; for pest or weed control at 500 g/ha: 500 g ai/ha, visual injury, 0 to 100 scale (0 no effect, 100 complete control), approx. 10 d
Method in brief: as §1

[5] = tested on: pigweed (Amaranthus retroflexus); assay: Test A preemergence; settings: Amaranthus retroflexus, pre-emergence, 240 h, 0 to 100 scale (0 no effect, 100 complete control), read-out: Plant response rating, Pigweed; for pest or weed control at 500 g/ha: 500 g ai/ha, preemergence; for pest or weed control at 125 g/ha: Preemergence, 125 g ai/ha
[6] = tested on: barnyardgrass (Echinochloa crus-galli); assay: Test A preemergence; settings: Echinochloa crus-galli, pre-emergence, 240 h, 0 to 100 scale (0 no effect, 100 complete control), read-out: Plant response rating, Barnyardgrass; for pest or weed control at 500 g/ha: 500 g ai/ha, preemergence; for pest or weed control at 125 g/ha: Preemergence, 125 g ai/ha
Method in brief: as §1

[7] = tested on: ryegrass, Italian (Italian ryegrass, Lolium multiflorum); assay: Test A preemergence; settings: Lolium multiflorum, pre-emergence, 240 h, 0 to 100 scale (0 no effect, 100 complete control), read-out: Plant response rating, Ryegrass, Italian; for pest or weed control at 500 g/ha: 500 g ai/ha, preemergence; for pest or weed control at 125 g/ha: Preemergence, 125 g ai/ha
Method in brief: as §1

Kochia (Kochia scoparia) = assay: Test A preemergence; settings: Bassia scoparia, pre-emergence, 240 h, 0 to 100 scale (0 no effect, 100 complete control), read-out: Plant response rating, Kochia; for pest or weed control at 500 g/ha: 500 g ai/ha, preemergence; for pest or weed control at 125 g/ha: Preemergence, 125 g ai/ha
Method in brief: as §1

[8] = tested on: ragweed (common ragweed, Ambrosia elatior); assay: Test A preemergence; settings: Ambrosia artemisiifolia, pre-emergence, 240 h, 0 to 100 scale (0 no effect, 100 complete control), read-out: Plant response rating, Ragweed; for pest or weed control at 500 g/ha: 500 g ai/ha, preemergence; for pest or weed control at 125 g/ha: Preemergence, 125 g ai/ha
Method in brief: as §1

[9] = tested on: giant foxtail (Setaria faberii); assay: Test A preemergence; settings: Setaria faberi, pre-emergence, 240 h, 0 to 100 scale (0 no effect, 100 complete control), read-out: Plant response rating, Foxtail, Giant; for pest or weed control at 500 g/ha: 500 g ai/ha, preemergence; for pest or weed control at 125 g/ha: Preemergence, 125 g ai/ha
Method in brief: as §1

rice (Oryra sativa) = assay: Test B flooded paddy test; settings: Oryza sativa, 360 h, Flood, 250 g ai/ha; visually evaluated after 13 to 15 d; read-out: Plant response rating, Rice (0 to 100 scale where 0 is no effect and 100 is complete control)
Method in brief: (§2)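 Visual ratings (0 none to 100 complete control) are relative to untreated plants, taken 13–15 d after treatment in a greenhouse. Test material went straight into floodwater standing 3 cm above the soil, kept constant, on plants at the 2-leaf stage.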

[10] = tested on: barnyardgrass (Echinochloa crus-galli); assay: Test B flooded paddy test; settings: Echinochloa crus-galli, 360 h, Flood, 250 g ai/ha; visually evaluated after 13 to 15 d; read-out: Plant response rating, Barnyardgrass (0 to 100 scale where 0 is no effect and 100 is complete control)
Method in brief: as §2

[11] = tested on: ducksalad (Heteranthera limosa); assay: Test B flooded paddy test; settings: Heteranthera limosa, 360 h, Flood, 250 g ai/ha; visually evaluated after 13 to 15 d; read-out: Plant response rating, Ducksalad (0 to 100 scale where 0 is no effect and 100 is complete control)
Method in brief: as §2

[12] = tested on: sedge, umbrella (small-flower umbrella sedge, Cyperus difformis); assay: Test B flooded paddy test; settings: Cyperus difformis, 360 h, Flood, 250 g ai/ha; visually evaluated after 13 to 15 d; read-out: Plant response rating, Sedge, Umbrella (0 to 100 scale where 0 is no effect and 100 is complete control)
Method in brief: as §2

[13] = visual rating about 10 d after treatment, read-out: Barnyardgrass plant response rating (0 to 100 scale, 0 no effect, 100 complete control)
[14] = read-out: Plant response rating, Barnyardgrass
[15] = visual rating about 10 d after treatment, read-out: Galium plant response rating (0 to 100 scale)
[16] = read-out: Plant response rating, Galium
[17] = visual rating about 10 d after treatment, read-out: Wheat plant response rating (0 to 100 scale)
[18] = read-out: Plant response rating, Wheat
[19] = visual rating about 10 d after treatment, read-out: Foxtail, Giant plant response rating (0 to 100 scale)
[20] = read-out: Plant response rating, Foxtail, Giant
[21] = visual injury after approx. 10 d, 0 to 100 scale, 0 no effect, 100 complete control, read-out: Plant response rating, Barnyardgrass
[22] = visual injury after approx. 10 d, 0 to 100 scale, 0 no effect, 100 complete control, read-out: Plant response rating, Galium
[23] = visual injury after approx. 10 d, 0 to 100 scale, 0 no effect, 100 complete control, read-out: Plant response rating, Wheat
[24] = visual injury after approx. 10 d, 0 to 100 scale, 0 no effect, 100 complete control, read-out: Plant response rating, Foxtail, Giant

Compound | pest or weed control at 500 g/ha [1, 14] [%] | pest or weed control at 500 g/ha [2, 16] [%] | plant injury at 500 g/ha [3, 18] [%] | pest or weed control at 500 g/ha [4, 20] [%] | pest or weed control at 500 g/ha [5] [%] | pest or weed control at 125 g/ha [5] [%] | pest or weed control at 500 g/ha [6] [%] | pest or weed control at 125 g/ha [6] [%] | pest or weed control at 500 g/ha [7] [%] | pest or weed control at 125 g/ha [7] [%] | pest or weed control at 500 g/ha (Kochia (Kochia scoparia)) [%] | pest or weed control at 125 g/ha (Kochia (Kochia scoparia)) [%] | pest or weed control at 500 g/ha [8] [%] | pest or weed control at 125 g/ha [8] [%] | pest or weed control at 500 g/ha [9] [%] | pest or weed control at 125 g/ha [9] [%] | pest or weed control at 250 g/ha (rice (Oryra sativa)) [%] | pest or weed control at 250 g/ha [10] [%] | pest or weed control at 250 g/ha [11] [%] | pest or weed control at 250 g/ha [12] [%] | also measured
CN1C[C@H](c2ccc(OC(F)F)cc2)[C@@H](C(=O)Nc2ccccc2F)C1=O [Compound 1371] | 90 | 70 | 60 | 90 | 90 | 70 | 100 | 90 | 50 | 0 | 90 | 80 | 80 | 70 | 90 | 90 | 0 | 60 | 100 | 0 | pest or weed control at 125 g/ha [1, 13]: 80%; pest or weed control at 125 g/ha [2, 15]: 70%; plant injury at 125 g/ha [3, 17]: 10%; pest or weed control at 125 g/ha [4, 19]: 90%
Cc1ccc([C@H]2CN(C)C(=O)[C@@H]2C(=O)Nc2ccc(F)c(F)c2F)cc1 [Compound 1378] | 80 | 70 | 70 | 90 | 70 | 70 | 90 | 90 | 90 | 80 | 90 | 80 | 90 | 50 | 90 | 90 | 45 | 85 | 95 | 0 | pest or weed control at 125 g/ha [1, 13]: 80%; pest or weed control at 125 g/ha [2, 15]: 60%; plant injury at 125 g/ha [3, 17]: 60%; pest or weed control at 125 g/ha [4, 19]: 80%
O=C1NC[C@H](c2cnc(C(F)(F)F)nc2)[C@H]1C(=O)Nc1cccc(F)c1F [Compound 1382] | 80 | 30 | 0 | 70 | 20 | 20 | 70 | 0 | 0 | 0 | 60 | 0 | 0 | 0 | 90 | 0 | 0 | 30 | 90 | 20 | pest or weed control at 125 g/ha [1, 13]: 0%; pest or weed control at 125 g/ha [2, 15]: 0%; plant injury at 125 g/ha [3, 17]: 0%; pest or weed control at 125 g/ha [4, 19]: 0%
Cc1ccc([C@H]2CN(C)C(=O)[C@@H]2C(=O)Nc2ccccc2F)cc1Cl [Compound 1384] | 90 | 70 | 50 | 90 | 30 | 30 | 90 | 90 | 70 | 30 | 70 | 30 | 0 | 0 | 90 | 90 | 40 | 65 | 100 | 0 | pest or weed control at 125 g/ha [1, 21]: 90%; pest or weed control at 125 g/ha [2, 22]: 30%; plant injury at 125 g/ha [3, 23]: 0%; pest or weed control at 125 g/ha [4, 24]: 80%
Cc1c(F)cccc1NC(=O)[C@H]1C(=O)N(C)C[C@@H]1c1ccc(C(F)(F)F)cc1 [Compound 1386] | 90 | 60 | 60 | 90 | 90 | 80 | 100 | 90 | 70 | 50 | 90 | 80 | 80 | 60 | 90 | 90 | 0 | 55 | 100 | 0 | pest or weed control at 125 g/ha [1, 21]: 90%; pest or weed control at 125 g/ha [2, 22]: 60%; plant injury at 125 g/ha [3, 23]: 50%; pest or weed control at 125 g/ha [4, 24]: 90%
